# Target: T1, C1s (Cricetulus griseus, UniProt G3GUR0)
# T1 construct: endogenous in cells; host or cells: CHO cells; FreeStyle CHO-S (Thermo Fisher) named in Materials and Methods; 10x concentrated culture supernatant
# Assay: Proteolysis of purified MN gp120 by 10× concentrated CHO supernatant, western blot
# Assay type: biochemical, Chinese Hamster
# Details: purified MN gp120 (clade B) combined with 10× concentrated CHO supernatant; reduced with DTT; goat polyclonal anti-gp120 western blot
# Protocol: FIGS. 8A and 8B. […] FIG. 8A. Purified MN gp120, a clade B protein, was combined with 10× concentrated CHO supernatant. Samples were reduced with DTT and probed on western blot using a goat polyclonal antibody against gp120. FIG. 8B provides details of samples loaded in lanes 1-5 in FIG. 8A. The serine protease inhibitor, 4-AMB was used.
# Enrichment of protease from CHO cell culture supernatant was carried out using a series of chromatography columns to enrich for protein containing proteolytic activity. Individual chromatography fractions (CHO cell culture supernatant was fractionated based on size using size exclusion chromatography, followed by further purification on strong anion-exchange column) were assayed for the presence of protease activity against purified gp120.
# T1 sequence (G3GUR0 entry or part of it): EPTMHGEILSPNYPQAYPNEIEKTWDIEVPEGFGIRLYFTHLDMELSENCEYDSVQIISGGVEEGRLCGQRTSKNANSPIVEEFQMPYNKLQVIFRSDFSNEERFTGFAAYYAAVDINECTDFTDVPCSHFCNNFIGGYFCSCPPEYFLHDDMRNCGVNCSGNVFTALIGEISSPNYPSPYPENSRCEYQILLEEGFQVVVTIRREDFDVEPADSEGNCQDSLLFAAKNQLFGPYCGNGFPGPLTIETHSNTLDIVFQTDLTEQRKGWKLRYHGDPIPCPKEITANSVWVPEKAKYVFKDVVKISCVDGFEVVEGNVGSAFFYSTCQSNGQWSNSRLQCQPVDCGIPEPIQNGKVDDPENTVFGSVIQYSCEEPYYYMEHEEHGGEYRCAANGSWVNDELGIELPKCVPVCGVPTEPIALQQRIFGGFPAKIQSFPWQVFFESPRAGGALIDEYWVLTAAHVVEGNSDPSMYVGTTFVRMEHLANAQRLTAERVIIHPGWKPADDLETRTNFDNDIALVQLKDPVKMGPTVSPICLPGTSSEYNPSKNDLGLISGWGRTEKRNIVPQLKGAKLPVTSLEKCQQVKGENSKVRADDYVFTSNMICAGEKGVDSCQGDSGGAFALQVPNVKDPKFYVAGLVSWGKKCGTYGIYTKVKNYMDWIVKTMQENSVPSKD
smiles,measurement,value
O=C(O)CN(CCOCCOCCN(CC(=O)O)CC(=O)O)CC(=O)O [EGTA],proteolysis of gp120 in CHO cell supernatant,Inhibition of proteolysis

# From patent US12559526B2, “Complement component 1s (C1s) deficient cells for production of vaccines and biopharmaceutical proteins” (The Regents of the University of California, priority 2018, dated 2026)
